Source: patent US20240398752A1 (AJOU UNIVERSITY INDUSTRY-ACADEMIC COOPERATION FOUNDATION, priority 2021, published 2024)

Legend:
in vivo = conditions: for clearance: CL; for CL renal: CLR; for half-life: Terminal half-life; for Vd: Vss; for Ae0-24 h: urine 24 hours; for reduction in AUC in the LC-ISN group compared to the LC group: isosakuranetin 15 mg/kg
Experimental: Blood collection was performed at 0, 1, 5, 15, 30, 45, 60, 90, 120, 180, 240, 360, 480, 600, and 720 minutes for intravenous administration of tofacitinib, and at 0, 5, 15, 30, 45, 60, 90, 120, 180, 240, 360, 480, 600, and 720 minutes for oral administration to quantify concentrations of tofacitinib in the plasma. Then, urine was collected for 24 hours to analyze the concentration of tofacitinib excreted in urine as well.

[1] = Experimental: In the experiment, the concentration of tofacitinib was set at 5, 10, 20, 50, 100, 200, and 500 μM, 1 mg of microsomes and nicotinamide adenine dinucleotide phosphate hydrogen-generating system (Corning Inc., Corning, NY, USA) were blended, and the total volume was adjusted to 1 mL with 0.1 M potassium phosphate buffer (pH 7.4), followed by incubation for 15 minutes at a rate of 50 oscillations per minutes in a water-bath (37° C.). The concentration (Km) of tofacitinib when Vmax, the maximum rate of drug metabolism (Vmax), was halved was measured by the Lineweaver-Burk plot. The intrinsic clearance (CLint) of the drug was calculated by dividing Vmax by Km.
[2] = rat, in vivo, iv, 10 mg/kg, tofacitinib 10 mg/kg intravenous, CON rats
[3] = rat, in vivo, iv, 10 mg/kg, tofacitinib 10 mg/kg intravenous, LC rats
[4] = rat, in vivo, iv, 10 mg/kg, tofacitinib 10 mg/kg intravenous, LC-ISN rats
[5] = rat, in vivo, po, 20 mg/kg, tofacitinib 20 mg/kg oral, CON rats
[6] = rat, in vivo, po, 20 mg/kg, tofacitinib 20 mg/kg oral, LC-ISN 15 rats
[7] = rat, in vivo, po, 20 mg/kg, tofacitinib 20 mg/kg oral, LC rats
[8] = tofacitinib 10 mg/kg intravenous
[9] = tofacitinib 10 mg/kg intravenous, CON rats
[10] = tofacitinib 10 mg/kg intravenous, LC rats
[11] = tofacitinib 10 mg/kg intravenous, LC-ISN rats
[12] = tofacitinib 20 mg/kg oral, CON rats
[13] = tofacitinib 20 mg/kg oral, LC rats
[14] = tofacitinib 20 mg/kg oral, LC-ISN 15 rats

`C[C@@H]1CCN(C(=O)CC#N)C[C@@H]1N(C)c1ncnc2[nH]ccc12` [tofacitinib] showed an AUC (in vivo; rat, in vivo, iv, 10 mg/kg, AUC, tofacitinib 10 mg/kg intravenous, CON rats) of 7330 ng·h/mL, an AUC (in vivo; rat, in vivo, iv, 10 mg/kg, AUC, tofacitinib 10 mg/kg intravenous, LC rats) of 18900 ng·h/mL and a clearance (in vivo; [2]) of 24.1 ± 6.27 mL/min/kg. For the same molecule, the clearance (in vivo; [3]) was 11 ± 2.06 mL/min/kg, the clearance (in vivo; [4]) was 13.8 ± 1.73 mL/min/kg and the CL renal (in vivo; [2]) was 3.73 ± 1.09 mL/min/kg. It also gave a CL renal (in vivo; [3]) of 4.65 ± 2.74 mL/min/kg, a CL renal (in vivo; [4]) of 4.1 ± 1.64 mL/min/kg and a half-life (in vivo; rat, in vivo, iv, 10 mg/kg, tofacitinib 10 mg/kg intravenous, CON (control) rats) of 35.4 ± 19.2 min. For the same molecule, the half-life (in vivo; rat, in vivo, iv, 10 mg/kg, tofacitinib 10 mg/kg intravenous, LC rats (liver cirrhosis induced by DMN)) was 113 ± 43.7 min, the Vd (in vivo; [2]) was 0.429 ± 0.253 L/kg and the Vd (in vivo; [3]) was 0.798 ± 0.177 L/kg. The Vd (in vivo; [4]) was 0.8 ± 0.326 L/kg, the AUC (in vivo; rat, in vivo, po, 20 mg/kg, AUC, tofacitinib 20 mg/kg oral, CON rats) was 6400 ng·h/mL and the AUC (in vivo; rat, in vivo, po, 20 mg/kg, AUC, tofacitinib 20 mg/kg oral, LC rats) was 33800 ng·h/mL. For the same molecule, the AUC (in vivo; rat, in vivo, po, 20 mg/kg, AUC, tofacitinib 20 mg/kg oral, LC-ISN 15 rats) was 20700 ng·h/mL, the CL renal (in vivo; [5]) was 6.98 ± 2.99 mL/min/kg and the CL renal (in vivo; [6]) was 5.71 ± 2.47 mL/min/kg. The Cmax (in vivo; [5]) was 3530 ± 1460 ng/mL, the Cmax (in vivo; [7]) was 9100 ± 1260 ng/mL and the Cmax (in vivo; [6]) was 6080 ± 1990 ng/mL. It also gave a Tmax (in vivo; [5]) of 50 min, a Tmax (in vivo; [7]) of 55.7 min and a Tmax (in vivo; [6]) of 85.7 min. The “increase of AUC in the LC group compared to the CON group” value (in vivo; [8]) was 158%, the “reduction in nonrenal clearance (CLNR) in the LC group compared to the CON group” value (in vivo; [8]) was 69.9% and the “reduction in total body clearance (CL) in the LC group compared to the CON group” value (in vivo; [8]) was 54.4%. The CLNR (in vivo; [9]) was 21.1 ± 4.57 mL/min/kg, the GI24 h (in vivo; [9]) was 0.164 ± 0.102 % of dose and the Ae0-24 h (in vivo; [9]) was 13.9 ± 2.28 % of dose. The CLNR (in vivo; [10]) was 6.35 ± 1.27 mL/min/kg, the GI24 h (in vivo; [10]) was 2.07 ± 2.12 % of dose and the Ae0-24 h (in vivo; [10]) was 40.2 ± 18.9 % of dose. For the same molecule, the AUC (in vivo; [11]) was 12300 ± 1780 ng·h/mL, the CLNR (in vivo; [11]) was 9.68 ± 2.40 mL/min/kg and the GI24 h (in vivo; [11]) was 0.166 ± 0.135 % of dose. The Terminal half-life (in vivo; tofacitinib 10 mg/kg intravenous, LC-ISN rats (LC treated with isosakuranetin 15 mg/kg)) was 58.2 ± 16.8 min, the Ae0-24 h (in vivo; [11]) was 30.1 ± 12.3 % of dose and the “reduction in AUC in the LC-ISN group compared to the LC group” value (in vivo; [8]) was 35.1%. The “increase of AUC in the LC group compared to the CON group” value (in vivo; tofacitinib 20 mg/kg oral) was 429%, the F (in vivo; [12]) was 43.6% and the GI24 h (in vivo; [12]) was 0.106 ± 0.101 % of dose. For the same molecule, the Ae0-24 h (in vivo; [12]) was 11.8 ± 4.08 % of dose, the CLR (in vivo; [13]) was 3.62 ± 1.78 mL/min/kg and the F (in vivo; [13]) was 89.5%. The GI24 h (in vivo; [13]) was 1.73 ± 2.04 % of dose, the Ae0-24 h (in vivo; [13]) was 35.8 ± 16.9 % of dose and the F (in vivo; [14]) was 84.1%. The GI24 h (in vivo; [14]) was 0.340 ± 0.288 % of dose, the Ae0-24 h (in vivo; [14]) was 35.9 ± 16.8 % of dose and the “reduction in AUC in the LC-ISN group compared to the LC group” value (in vivo; tofacitinib 20 mg/kg oral) was 38.9%. For the same molecule, the “Km in the three groups (CON, LC, LC-ISN)” value ([1]; hepatic microsome) was “No significant difference”, the “decrease of Vmax in the LC group compared to the CON group” value ([1]; hepatic microsome) was 63.4% and the “increase of Vmax in the LC-ISN group compared to the LC group” value ([1]; hepatic microsome) was 204%. For the same molecule, the “CLint of the LC-ISN group recovered to % of the CON group” value ([1]; hepatic microsomes) was 92.2%, the “decrease of CLint in the LC group compared to the CON group” value ([1]; hepatic microsomes) was 64.9% and the “increase of CLint in the LC-ISN group compared to the LC group” value ([1]; hepatic microsomes) was 163%. For the same molecule, the “CLint in the LC group compared to the CON group and the LC-ISN group” value ([1]; small intestinal microsome) was “no statistically significant difference”.
